Assay results published in ChEMBL document CHEMBL3124792, “Discovery and preclinical characterization of the cyclopropylindolobenzazepine BMS-791325, a potent allosteric inhibitor of the hepatitis C virus NS5B polymerase” (J Med Chem, 2014).
pEC50, pIC50: −log10 of the molar value. ≈ marks a conversion by molar mass, not a printed value.

Key:
Hepatitis C virus [1] = assay: Antiviral activity against Hepatitis C virus H77c genotype 1a infected in human HuH7 cells after 3 days by FRET assay; format: functional, organism-based, Hepacivirus hominis; settings: genotype 1a H77, Huh-7, 72 h
[2] = target: T1, Voltage-gated inwardly rectifying potassium channel KCNH2 (Homo sapiens, UniProt Q12809); assay: Inhibition of human ERG by fluorescence-based thallium flux assay
T1 sequence (Q12809 whole entry): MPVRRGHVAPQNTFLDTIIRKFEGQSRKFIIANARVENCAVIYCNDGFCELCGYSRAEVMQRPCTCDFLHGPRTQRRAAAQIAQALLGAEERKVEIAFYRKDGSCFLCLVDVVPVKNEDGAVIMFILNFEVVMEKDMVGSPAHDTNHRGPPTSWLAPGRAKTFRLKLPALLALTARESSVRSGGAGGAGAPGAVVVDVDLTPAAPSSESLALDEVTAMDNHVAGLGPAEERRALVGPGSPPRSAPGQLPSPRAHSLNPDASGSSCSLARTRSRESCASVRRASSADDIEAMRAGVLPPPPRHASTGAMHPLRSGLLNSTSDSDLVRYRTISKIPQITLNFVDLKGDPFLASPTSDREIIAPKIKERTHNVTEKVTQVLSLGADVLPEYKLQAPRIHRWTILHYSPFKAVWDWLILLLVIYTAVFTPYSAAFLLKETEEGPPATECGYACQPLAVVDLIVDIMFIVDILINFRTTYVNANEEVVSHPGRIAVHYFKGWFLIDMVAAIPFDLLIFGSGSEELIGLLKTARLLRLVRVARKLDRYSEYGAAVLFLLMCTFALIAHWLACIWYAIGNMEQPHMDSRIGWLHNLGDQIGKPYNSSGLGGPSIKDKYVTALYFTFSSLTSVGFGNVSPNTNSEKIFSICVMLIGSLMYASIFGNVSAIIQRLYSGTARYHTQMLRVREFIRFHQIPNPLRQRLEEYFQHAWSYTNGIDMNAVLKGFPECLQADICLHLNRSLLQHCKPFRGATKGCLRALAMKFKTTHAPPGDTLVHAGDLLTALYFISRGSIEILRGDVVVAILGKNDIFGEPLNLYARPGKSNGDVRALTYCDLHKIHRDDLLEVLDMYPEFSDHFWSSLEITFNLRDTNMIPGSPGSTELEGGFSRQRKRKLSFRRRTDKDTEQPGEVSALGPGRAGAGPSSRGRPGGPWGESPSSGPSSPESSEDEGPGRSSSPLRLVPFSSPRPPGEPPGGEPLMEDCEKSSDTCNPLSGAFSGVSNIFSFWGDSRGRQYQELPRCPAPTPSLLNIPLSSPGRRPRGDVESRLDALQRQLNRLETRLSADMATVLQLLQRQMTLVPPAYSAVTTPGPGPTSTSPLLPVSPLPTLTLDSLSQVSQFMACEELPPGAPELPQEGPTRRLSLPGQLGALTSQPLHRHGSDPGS

[3] = Protein binding in human serum; format: ADME, cell-free; settings: read-out: PB (converted)
[4] = Cmax in rat at 10 mg/kg, po; format: ADME, organism-based; set-up: dose 10 mg/kg, route oral; settings: in vivo
PXR (NR1I2) = target: T2, PXR (NR1I2) (Homo sapiens, UniProt O75469); assay: Transactivation of human PXR expressed in human HepG2 cells at 5.56 uM by luciferase reporter gene assay relative to control; format: cell-based; settings: HepG2 cells that express human PXR, read-out: %max
T2 sequence (O75469 whole entry): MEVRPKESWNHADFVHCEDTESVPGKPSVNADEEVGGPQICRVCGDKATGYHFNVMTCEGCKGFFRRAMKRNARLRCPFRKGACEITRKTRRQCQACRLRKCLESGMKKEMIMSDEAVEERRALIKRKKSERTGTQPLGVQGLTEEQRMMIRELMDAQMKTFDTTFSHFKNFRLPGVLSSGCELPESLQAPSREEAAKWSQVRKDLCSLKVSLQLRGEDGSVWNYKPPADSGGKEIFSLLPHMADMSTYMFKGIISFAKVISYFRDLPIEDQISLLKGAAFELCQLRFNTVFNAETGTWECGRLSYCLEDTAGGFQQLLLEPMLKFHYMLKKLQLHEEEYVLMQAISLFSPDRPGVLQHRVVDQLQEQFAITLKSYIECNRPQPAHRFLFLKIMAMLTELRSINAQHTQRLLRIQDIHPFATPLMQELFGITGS

[5] = Aqueous solubility of the compound at pH 6.5; settings: buffer
Cytochrome P450 3A4 = Cytochrome P450 3A4 (Homo sapiens, UniProt P08684); assay: Inhibition of CYP3A4 (unknown origin); format: ADME
Chain of Cytochrome P450 3A4 (P08684 whole entry): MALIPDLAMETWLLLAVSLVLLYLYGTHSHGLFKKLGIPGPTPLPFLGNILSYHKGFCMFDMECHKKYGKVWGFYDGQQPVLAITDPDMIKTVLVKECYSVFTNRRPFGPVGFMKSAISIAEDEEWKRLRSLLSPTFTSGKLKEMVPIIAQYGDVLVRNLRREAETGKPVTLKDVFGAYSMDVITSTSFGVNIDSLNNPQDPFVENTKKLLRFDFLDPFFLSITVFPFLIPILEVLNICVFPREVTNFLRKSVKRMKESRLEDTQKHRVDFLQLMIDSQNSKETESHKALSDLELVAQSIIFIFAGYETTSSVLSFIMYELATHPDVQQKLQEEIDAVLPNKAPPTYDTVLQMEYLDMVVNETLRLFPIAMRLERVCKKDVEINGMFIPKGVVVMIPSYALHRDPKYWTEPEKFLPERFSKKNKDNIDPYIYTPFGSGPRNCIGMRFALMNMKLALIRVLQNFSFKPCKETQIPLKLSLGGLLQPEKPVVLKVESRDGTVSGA

[6] = target: T1, Voltage-gated inwardly rectifying potassium channel KCNH2; assay: Inhibition of human ERG by patch-clamp assay
CYP2C19 = CYP2C19 (Homo sapiens, UniProt P33261); assay: Inhibition of CYP2C19 (unknown origin)
Chain of CYP2C19 (P33261 whole entry): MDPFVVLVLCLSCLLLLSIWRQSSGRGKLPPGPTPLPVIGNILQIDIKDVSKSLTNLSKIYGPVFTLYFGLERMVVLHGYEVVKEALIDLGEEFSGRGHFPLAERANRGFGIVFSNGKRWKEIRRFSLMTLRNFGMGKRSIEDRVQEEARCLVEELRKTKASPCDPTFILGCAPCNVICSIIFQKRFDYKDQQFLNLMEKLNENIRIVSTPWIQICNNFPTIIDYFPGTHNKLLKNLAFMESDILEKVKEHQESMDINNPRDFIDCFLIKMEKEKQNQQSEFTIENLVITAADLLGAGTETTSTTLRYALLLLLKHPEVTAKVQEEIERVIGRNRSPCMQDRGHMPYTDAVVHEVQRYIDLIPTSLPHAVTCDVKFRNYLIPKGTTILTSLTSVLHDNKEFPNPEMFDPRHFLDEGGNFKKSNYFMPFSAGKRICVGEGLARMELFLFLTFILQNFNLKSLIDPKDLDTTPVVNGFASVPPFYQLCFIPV

[7] = Half life in rat liver microsomes; format: ADME
CYP2C9 = CYP2C9 (Homo sapiens, UniProt P11712); assay: Inhibition of CYP2C9 (unknown origin)
Chain of CYP2C9 (P11712 whole entry): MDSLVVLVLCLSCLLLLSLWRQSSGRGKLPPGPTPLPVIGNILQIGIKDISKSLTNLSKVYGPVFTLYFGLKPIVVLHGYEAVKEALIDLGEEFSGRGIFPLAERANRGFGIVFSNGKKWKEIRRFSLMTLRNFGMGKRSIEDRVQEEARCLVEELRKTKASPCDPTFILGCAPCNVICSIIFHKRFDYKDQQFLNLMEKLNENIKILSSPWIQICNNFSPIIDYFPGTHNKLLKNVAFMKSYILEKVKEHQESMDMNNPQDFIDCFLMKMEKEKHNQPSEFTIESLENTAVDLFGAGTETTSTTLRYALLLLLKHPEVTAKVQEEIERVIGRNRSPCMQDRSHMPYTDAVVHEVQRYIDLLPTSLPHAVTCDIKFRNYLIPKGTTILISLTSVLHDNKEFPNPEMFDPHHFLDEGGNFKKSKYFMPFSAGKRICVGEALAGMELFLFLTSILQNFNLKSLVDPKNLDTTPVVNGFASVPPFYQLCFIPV

[8] = Half life in rat at 5 mg/kg, iv; settings: in vivo
Enterovirus = assay: Antiviral activity against Rhinovirus; format: functional, organism-based
[9] = Inhibition of human phosphodiesterase 4 by functional assay
Liver microsome [10] = settings: human, microsomes
[11] = Aqueous solubility of the compound at pH 7.8; settings: buffer
[12] = test system: unidentified influenza virus; assay: Antiviral activity against Influenza virus; format: functional, organism-based
[13] = Half life in cynomolgus monkey liver microsomes; format: ADME, Macaca fascicularis, Microsome
[14] = Inhibition of Hepatitis C virus genotype 1a NS5B; set-up: species or system Hepatitis C virus subtype 1a
[15] = Half life in human liver microsomes; format: ADME
[16] = AUC (0 to infinity) in rat at 10 mg/kg, po; format: ADME, organism-based; set-up: time infinity, dose 10 mg/kg, route oral; settings: plasma
in vivo = settings: rat, po, 10 mg/kg
[17] = Inhibition of Hepatitis C virus genotype 4a NS5B; set-up: species or system Hepatitis C virus subtype 4a
[18] = Tmax in rat at 10 mg/kg, po; format: ADME, organism-based; set-up: dose 10 mg/kg, route oral; settings: in vivo
Hepatitis C virus [19] = assay: Antiviral activity against Hepatitis C virus Con1 genotype 1b infected in human HuH7 cells after 3 days by FRET assay in presence of 40% human serum; format: functional, organism-based, Hepacivirus hominis; settings: isolate Con1, Huh-7, 72 h
[20] = Inhibition of HCV Con1 genotype 1b recombinant wild-type NS5B polymerase-mediated incorporation of radiolabeled nucleotides by scintillation proximity assay; set-up: species or system Hepatitis C virus (isolate Con1)
[21] = Inhibition of Hepatitis C virus genotype 3a NS5B; set-up: species or system Hepatitis C virus subtype 3a
CYP1A2 = CYP1A2 (Homo sapiens, UniProt P05177); assay: Inhibition of CYP1A2 (unknown origin)
Chain of CYP1A2 (P05177 whole entry): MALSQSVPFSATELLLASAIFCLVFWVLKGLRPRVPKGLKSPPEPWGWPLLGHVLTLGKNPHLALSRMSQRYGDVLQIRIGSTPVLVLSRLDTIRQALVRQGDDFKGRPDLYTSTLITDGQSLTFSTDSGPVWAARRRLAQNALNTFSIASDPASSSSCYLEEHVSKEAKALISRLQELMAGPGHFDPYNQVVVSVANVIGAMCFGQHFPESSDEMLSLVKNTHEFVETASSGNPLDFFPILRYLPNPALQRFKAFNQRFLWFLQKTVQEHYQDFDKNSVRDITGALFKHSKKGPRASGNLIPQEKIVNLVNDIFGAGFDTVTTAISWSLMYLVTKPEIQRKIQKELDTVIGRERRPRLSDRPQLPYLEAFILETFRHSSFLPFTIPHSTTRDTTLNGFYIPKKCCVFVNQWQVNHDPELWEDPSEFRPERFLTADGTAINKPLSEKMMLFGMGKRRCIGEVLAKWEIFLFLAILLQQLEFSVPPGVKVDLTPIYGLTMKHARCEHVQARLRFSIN

[22] = Inhibition of Hepatitis C virus genotype 5a NS5B; set-up: species or system Hepatitis C virus subtype 5a
[23] = test system: Human immunodeficiency virus; assay: Antiviral activity against Human immunodeficiency virus; format: functional, organism-based; settings: Human immunodeficiency virus 1
[24] = Half life in dog liver microsomes; format: ADME, Canis lupus familiaris
CYP2D6 = CYP2D6 (Homo sapiens, UniProt P10635); assay: Inhibition of CYP2D6 (unknown origin)
Chain of CYP2D6 (P10635 whole entry): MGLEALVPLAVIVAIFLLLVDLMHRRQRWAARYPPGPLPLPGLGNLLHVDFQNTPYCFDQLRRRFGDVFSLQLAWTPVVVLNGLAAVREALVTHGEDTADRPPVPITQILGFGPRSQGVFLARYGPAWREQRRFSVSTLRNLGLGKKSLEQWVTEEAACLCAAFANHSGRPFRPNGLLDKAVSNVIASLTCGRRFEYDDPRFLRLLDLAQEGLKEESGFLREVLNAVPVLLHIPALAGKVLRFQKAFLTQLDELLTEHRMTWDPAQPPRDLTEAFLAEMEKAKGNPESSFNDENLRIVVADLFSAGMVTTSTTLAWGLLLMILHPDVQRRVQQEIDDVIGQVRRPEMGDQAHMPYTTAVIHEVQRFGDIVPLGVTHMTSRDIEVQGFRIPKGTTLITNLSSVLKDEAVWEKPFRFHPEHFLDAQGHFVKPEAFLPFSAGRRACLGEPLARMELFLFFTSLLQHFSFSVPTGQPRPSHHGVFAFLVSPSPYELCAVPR

Enterovirus C = assay: Antiviral activity against Poliovirus; format: functional, organism-based
Rattus norvegicus = assay: AUC (0 to infinity) in rat at 5 mg/kg, iv; format: ADME, organism-based, Plasma; set-up: time infinity, dose 5 mg/kg, route intravenous; settings: in vivo
[25] = Cmax in rat at 5 mg/kg, iv; format: ADME, organism-based; set-up: dose 5 mg/kg, route intravenous; settings: in vivo
[26] = test system: Bovine viral diarrhea virus 1; assay: Antiviral activity against Bovine viral diarrhea virus; format: functional, organism-based; settings: Bovine viral diarrhea virus isolates and strains
Liver microsome [27] = settings: rat, microsomes
Hepatitis C virus [28] = assay: Antiviral activity against Hepatitis C virus genotype 1a by cell-based assay; format: functional, organism-based, Hepacivirus hominis; settings: subtype 1a
[29] = Half life in rat at 10 mg/kg, po; settings: in vivo
[30] = Inhibition of Hepatitis C virus genotype 1b NS5B; set-up: species or system Hepatitis C virus subtype 1b
Coxsackievirus = assay: Antiviral activity against Coxsackievirus; format: functional, organism-based
[31] = Solubility of the compound in amorphous form in phosphate buffer at pH 6.5; format: physicochemical
[32] = Volume of distribution in rat at 5 mg/kg, iv; settings: in vivo
Coronaviridae = assay: Antiviral activity against Coronavirus; format: functional, organism-based
Homo sapiens = organism: Homo sapiens; assay: Inhibition of human phosphodiesterase 4 at 10 uM relative to control
[33] = Aqueous solubility of the compound at pH 2.2; settings: buffer
[34] = Cytotoxicity against human HuH7 cells by Alamar blue assay; format: cell-based; settings: Huh-7 cells
[35] = Permeability of the compound at pH 7.4 by PAMPA; format: physicochemical; settings: read-out: permeability
Hepatitis C virus [36] = assay: Antiviral activity against Hepatitis C virus genotype 2a by cell-based assay; format: functional, organism-based, Hepacivirus hominis
[37] = Plasma concentration in rat at 5 mg/kg, iv after 4 hrs; format: ADME, organism-based; set-up: dose 5 mg/kg, route intravenous
[38] = Drug uptake in rat liver at 10 mg/kg, po after 4 hrs; format: ADME, organism-based; set-up: dose 10 mg/kg, route oral; settings: read-out: Drug uptake
[39] = Plasma concentration in rat at 10 mg/kg, po after 4 hrs; format: ADME, organism-based; set-up: dose 10 mg/kg, route oral
[40] = target: T3, Nuclear receptor subfamily 1 group I member 2 (Homo sapiens, UniProt O75469); assay: Transactivation of human PXR expressed in human HepG2 cells by luciferase reporter gene assay; format: cell-based
T3 sequence (O75469 whole entry): T2 sequence (O75469 whole entry)

[41] = AUC (0 to 4 hrs) in rat at 5 mg/kg, iv; format: ADME, organism-based; set-up: time < 4 hr, dose 5 mg/kg, route intravenous; settings: plasma
Hepatitis C virus [42] = assay: Antiviral activity against Hepatitis C virus Con1 genotype 1b infected in human HuH7 cells after 3 days by FRET assay; format: functional, organism-based, Hepacivirus hominis; settings: isolate Con1, Huh-7, 72 h
[43] = Plasma clearance in rat at 5 mg/kg, iv; format: ADME, organism-based; set-up: dose 5 mg/kg, route intravenous
[44] = AUC (0 to 4 hrs) in rat at 10 mg/kg, po; format: ADME, organism-based; set-up: time < 4 hr, dose 10 mg/kg, route oral; settings: plasma
[45] = Ratio of drug level in liver to plasma in rat at 5 mg/kg, iv after 4 hrs; format: ADME, organism-based; set-up: dose 5 mg/kg, route intravenous
[46] = Drug uptake in rat liver at 5 mg/kg, iv after 4 hrs; format: ADME, organism-based; set-up: dose 5 mg/kg, route intravenous; settings: read-out: Drug uptake

For COc1ccc2c(c1)[C@@H]1C[C@]1(C(=O)N1[C@@H]3CC[C@H]1CN(C)C3)Cn1c-2c(C2CCCCC2)c2ccc(C(=O)NS(=O)(=O)N(C)C)cc21 [BECLABUVIR], the pEC50 (Hepatitis C virus [1]) was 8.52, the pIC50 [2] was 4.61 and the fraction unbound [3] was 0.02. The Cmax [4] was 3.26 µM, the activity at 5.56 µM (PXR (NR1I2)) was 8.1% and the solubility [5] was 20 µg/mL (≈ 30.3 µM). The pIC50 (Cytochrome P450 3A4) was < 4.40, the pIC50 [6] was 4.91 and the pIC50 (CYP2C19) was < 4.40. For the same compound, the half-life [7] was > 3.33 h, the pIC50 (CYP2C9) was < 4.40 and the half-life [8] was 11.5 h. For the same compound, the pEC50 (Enterovirus) was < 4.85, the pIC50 [9] was 5.00 and the Stability (Liver microsome [10]) was 90%. The solubility [11] was > 1600 µg/mL, the pEC50 [12] was < 4.85 and the half-life [13] was 0.383 h. It also gave a pIC50 [14] of 8.52, a half-life [15] of 0.883 h and an AUC(0-inf) [16] of 39.3 µM·h. The bioavailability (in vivo) was 66%, the pIC50 [17] was 7.70 and the Tmax [18] was 5.3 h. For the same compound, the pEC50 (Hepatitis C virus [19]) was 7.55, the pIC50 [20] was 7.70 and the pIC50 [21] was 8.70. The pIC50 (CYP1A2) was < 4.40, the pIC50 [22] was 8.30 and the pEC50 [23] was < 4.85. The half-life [24] was > 3.33 h, the pIC50 (CYP2D6) was < 4.40 and the pEC50 (Enterovirus C) was < 4.85. For the same compound, the AUC (Rattus norvegicus) was 30 µM·h, the Cmax [25] was 12.1 µM and the pEC50 [26] was < 4.85. The Stability (Liver microsome [27]) was 99%, the pEC50 (Hepatitis C virus [28]) was 8.52 and the half-life [29] was 8.3 h. For the same compound, the pIC50 [30] was 8.40, the pEC50 (Coxsackievirus) was < 4.85 and the solubility [31] was 29 µg/mL (≈ 43.9 µM). For the same compound, the Vd [32] was 2.7 L/kg, the pEC50 (Coronaviridae) was < 4.85 and the inhibition (Homo sapiens) was 57%. For the same compound, the solubility [33] was > 1600 µg/mL, the CC50 [34] was > 10 µM and the Papp [35] was 64 ×10⁻⁶ cm/s. It also gave a pEC50 (Hepatitis C virus [36]) of 7.06.

For COc1ccc2c(c1)C1CC1(C(=O)N1CC(O)C1)Cn1c-2c(C2CCCCC2)c2ccc(C(=O)NS(=O)(=O)N(C)C)cc21 (racemic), the pEC50 (Hepatitis C virus [1]) was 7.35, the Stability (Liver microsome [10]) was 95% and the concentration at 4 h [37] was 0.017 µM. It also gave a pEC50 (Hepatitis C virus [19]) of 7.23, a concentration at 4 h [38] of 8.8 µM and a concentration at 4 h [39] of 0.011 µM. The pEC50 [40] was < 4.30, the AUC(0-t) at 4 h [41] was 1.42 µM·h and the pEC50 (Hepatitis C virus [42]) was 7.42. For the same compound, the clearance [43] was 96 mL/min/kg, the Stability (Liver microsome [27]) was 84% and the AUC(0-t) at 4 h [44] was 0.041 µM·h. The Kp at 4 h [45] was > 200, the solubility [31] was 57 µg/mL (≈ 93.9 µM) and the CC50 [34] was > 10 µM. It also gave a Papp [35] of 25 ×10⁻⁶ cm/s and a concentration at 4 h [46] of 5 µM.
